Test results reported in US20230398153A1, “A METHOD FOR EFFICIENT MICROGLIA REPLACEMENT” (The Board of Trustees of the Leland Stanford Junior …, priority 2020, published 2023).

System: endogenous microglia
Experiment: Depletion of endogenous microglia by PLX5622 diet
Type: in vivo, mouse
Details: PLX5622 diet for 21 days
Description: FIG. 8. Circulation-derived myeloid cells adopt a ramified microglia-like morphology upon brain engraftment. (A and B) Flow cytometry gating for analysis of donor chimerism in PB leukocytes (CD45+) (A) and brain myeloid cells (CD45+CD11b+)(B). (C) Representative images of circulation-derived myeloid cells (CDMCs)([…]) and host microglia (Iba-1+GFP−) cells and DAPI in the cortex of recipient mice at the indicated time points. Scale bars:50 μm. (D) Representative images of Iba-1+ cells in the cortex of mice treated with control or PLX5622 diet for 21 days. The right panels in each group are enlarged images of the boxed areas in the left panels. Scale bars: […]. (E) Iba-1+ cell density in the indicated brain regions was analyzed by microscopy (Mean±SEM, n=3/group, 6 brain slices/animal were quantified. ***p<0.001, Student's t-test). […]
Immunofluorescence microscopy. […] Images were obtained using a Zeiss LSM710 confocal microscope or Zeiss AxioImager motorized widefield fluorescence microscope.
Image analysis. […] For morphological analyses, Iba1+ cells and GFP+ cells in the indicated brain regions were analyzed. The number of Iba1+ cells, and number of branch points were manually counted using ImageJ. […] The length of processes in Iba-1+ cells was analyzed semi-automatically using NeuronJ plugin. The ratio of cell body to total cell area was analyzed using FracLac plugin as described. […]

In the case of `COc1ncc(F)cc1CNc1ccc(Cc2c[nH]c3ncc(C)cc23)c(F)n1` [PLX5622], the “elimination of endogenous microglia (Iba-1+ cell density)” value is reported as “efficient elimination of endogenous microglia throughout the brain”.
